According to patent publication US8697739B2, “Bicyclic acetyl-CoA carboxylase inhibitors and uses thereof” (Novartis AG, priority 2010, dated 2014):

molecular target: T1, human acetyl-CoA carboxylase 2 (ACC2) (Homo sapiens, UniProt O00763); experiment: Acetyl-CoA carboxylase enzyme assay (malonyl-CoA formation by LC/MS/MS); format: biochemical; conditions: recombinant human ACC2 (aa 144-2458); read-out: IC50 ACC2
T1 construct: The cDNA encoding amino acids 144 to 2458 of human acetyl-CoA carboxylase 2; made in house; host or cells: Sf9 insect cells (baculovirus, pFastBac1)
Outline: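 Malonyl-CoA formation was read by LC/MS/MS MRM against a [13C3]-malonyl-CoA internal standard, after acetic acid quench. The enzyme was baculovirus/Sf9-expressed human ACC2 residues 144–2458, given 15 minutes room-temperature compound preincubation in HEPES pH 7.5 buffer with MgCl2, citrate and DTT. Substrate solution held 50 μM acetyl-CoA, 120 μM ATP and 2 mM KHCO3.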

T1 sequence (O00763 144-2458): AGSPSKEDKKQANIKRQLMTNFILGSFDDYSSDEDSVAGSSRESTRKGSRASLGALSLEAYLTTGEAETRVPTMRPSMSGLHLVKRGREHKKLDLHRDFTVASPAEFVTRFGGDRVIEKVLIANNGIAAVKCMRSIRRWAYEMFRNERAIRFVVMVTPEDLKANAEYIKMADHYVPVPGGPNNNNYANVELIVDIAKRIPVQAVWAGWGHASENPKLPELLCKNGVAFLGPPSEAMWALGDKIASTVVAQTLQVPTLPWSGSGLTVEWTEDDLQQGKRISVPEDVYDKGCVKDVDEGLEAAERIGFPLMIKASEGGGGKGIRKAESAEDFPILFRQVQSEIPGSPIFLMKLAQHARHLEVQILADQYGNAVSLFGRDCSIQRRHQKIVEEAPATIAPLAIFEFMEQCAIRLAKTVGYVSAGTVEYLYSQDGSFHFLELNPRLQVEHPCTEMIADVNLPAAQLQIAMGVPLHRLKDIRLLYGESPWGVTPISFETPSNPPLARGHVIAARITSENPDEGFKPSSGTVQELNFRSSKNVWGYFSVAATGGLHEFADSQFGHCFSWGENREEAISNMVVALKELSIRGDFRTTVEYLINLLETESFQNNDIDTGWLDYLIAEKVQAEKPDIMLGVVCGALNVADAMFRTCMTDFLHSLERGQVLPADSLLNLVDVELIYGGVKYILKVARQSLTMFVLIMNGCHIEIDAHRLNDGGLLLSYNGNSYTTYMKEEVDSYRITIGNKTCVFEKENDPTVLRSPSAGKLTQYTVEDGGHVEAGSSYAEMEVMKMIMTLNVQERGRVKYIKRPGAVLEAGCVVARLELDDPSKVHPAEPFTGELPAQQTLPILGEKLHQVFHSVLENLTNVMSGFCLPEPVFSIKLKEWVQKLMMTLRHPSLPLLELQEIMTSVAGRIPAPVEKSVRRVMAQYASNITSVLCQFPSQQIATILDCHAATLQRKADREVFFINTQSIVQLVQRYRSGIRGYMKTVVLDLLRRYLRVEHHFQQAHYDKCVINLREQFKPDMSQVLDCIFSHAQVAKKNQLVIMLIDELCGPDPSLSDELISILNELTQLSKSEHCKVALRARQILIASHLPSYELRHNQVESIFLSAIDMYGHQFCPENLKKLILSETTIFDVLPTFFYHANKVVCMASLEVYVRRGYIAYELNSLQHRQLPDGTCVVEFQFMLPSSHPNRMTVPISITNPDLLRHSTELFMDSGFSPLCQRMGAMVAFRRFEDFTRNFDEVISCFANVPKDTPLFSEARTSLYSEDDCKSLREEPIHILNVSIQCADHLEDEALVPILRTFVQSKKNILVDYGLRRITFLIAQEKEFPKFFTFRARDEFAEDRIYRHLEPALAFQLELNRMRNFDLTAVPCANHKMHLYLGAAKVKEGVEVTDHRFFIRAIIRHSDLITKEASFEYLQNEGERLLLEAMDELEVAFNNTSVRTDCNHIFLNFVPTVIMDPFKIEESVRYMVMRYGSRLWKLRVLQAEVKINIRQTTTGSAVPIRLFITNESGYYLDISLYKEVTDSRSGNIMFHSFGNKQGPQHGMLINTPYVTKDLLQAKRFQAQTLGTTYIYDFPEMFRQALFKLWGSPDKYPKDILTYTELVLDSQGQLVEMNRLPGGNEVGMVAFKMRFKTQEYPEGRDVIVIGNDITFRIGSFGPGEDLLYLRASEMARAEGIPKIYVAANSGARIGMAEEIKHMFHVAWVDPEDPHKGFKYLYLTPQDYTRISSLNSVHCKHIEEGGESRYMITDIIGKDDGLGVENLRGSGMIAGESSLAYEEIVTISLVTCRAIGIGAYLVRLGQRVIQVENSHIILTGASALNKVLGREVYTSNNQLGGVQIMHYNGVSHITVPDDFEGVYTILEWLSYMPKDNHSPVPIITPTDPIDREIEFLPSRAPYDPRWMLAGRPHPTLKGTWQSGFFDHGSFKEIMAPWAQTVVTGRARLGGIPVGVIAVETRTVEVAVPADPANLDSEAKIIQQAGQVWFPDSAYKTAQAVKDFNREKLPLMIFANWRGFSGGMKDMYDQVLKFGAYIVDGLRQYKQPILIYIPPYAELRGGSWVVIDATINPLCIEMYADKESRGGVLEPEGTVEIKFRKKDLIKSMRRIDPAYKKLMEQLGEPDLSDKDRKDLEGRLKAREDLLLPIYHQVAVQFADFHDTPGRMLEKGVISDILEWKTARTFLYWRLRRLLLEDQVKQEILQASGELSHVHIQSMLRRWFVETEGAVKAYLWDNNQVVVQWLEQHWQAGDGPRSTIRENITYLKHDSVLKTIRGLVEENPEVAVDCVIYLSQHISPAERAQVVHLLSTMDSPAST

Row | Structure (SMILES) | IC50
1 | CC(C)(CO)[C@@H](NC(=O)[C@H]1CC[C@H](NS(=O)(=O)c2ccc3c(Cl)c(-c4ccccc4)[nH]c3c2)CC1)c1ccccc1 [Example 478, (1r,4S)-4-(3-chloro-2-phenyl-1H-indole-6-sulfonamido)-N-((S)-3-hydroxy-2,2-dimethyl-1-phenylpropyl)cyclohexanecarboxamide] | < 10 nM
2 | COCc1ccc(-c2[nH]c3cc(S(=O)(=O)N[C@H]4CC[C@H](C(=O)N5CCOC[C@@H]5C5CC5)CC4)ccc3c2Cl)cc1 [Example 480, 3-chloro-N-((1S,4r)-4-((S)-3-cyclopropylmorpholine-4-carbonyl)cyclohexyl)-2-(4-(methoxymethyl)phenyl)-1H-indole-6-sulfonamide] | < 10 nM
3 | Cc1ccccc1-c1cc2ccc(S(=O)(=O)N[C@H]3CC[C@H](C(=O)N4CCOC[C@@H]4C4CC4)CC3)cc2[nH]1 [Example 481, N-((1S,4r)-4-((S)-3-cyclopropylmorpholine-4-carbonyl)cyclohexyl)-2-o-tolyl-1H-indole-6-sulfonamide] | 20 nM
4 | Cc1ccccc1-c1cc2ccc(S(=O)(=O)N[C@H]3CC[C@H](C(=O)N4CCOC[C@@H]4C)CC3)cc2[nH]1 [Example 482, N-((1S,4r)-4-((S)-3-methylmorpholine-4-carbonyl)cyclohexyl)-2-o-tolyl-1H-indole-6-sulfonamide] | 90 nM
5 | Cc1c(-c2ccc(CCC(=O)O)cc2)n(C)c2cc(S(=O)(=O)N[C@H]3CC[C@H](C(=O)N4CCOC[C@@H]4C4CC4)CC3)ccc12 [Example 484, 3-(4-(6-(N-((1S,4r)-4-((S)-3-cyclopropylmorpholine-4-carbonyl)cyclohexyl)sulfamoyl)-1,3-dimethyl-1H-indol-2-yl)phenyl)propanoic acid] | < 10 nM
6 | COCCc1ccc(-c2[nH]c3cc(S(=O)(=O)N[C@H]4CC[C@H](C(=O)N5CCC6(CC5)COC6)CC4)ccc3c2Cl)cc1 [Example 485, N-((1r,4r)-4-(2-oxa-7-azaspiro[3.5]nonane-7-carbonyl)cyclohexyl)-3-chloro-2-(4-(2-methoxyethyl)phenyl)-1H-indole-6-sulfonamide] | 43 nM
7 | CCn1c(-c2ccccc2)cc2ccc(S(=O)(=O)N[C@H]3CC[C@H](C(=O)N4CCOC[C@@H]4C)CC3)cc21 [Example 486, 1-ethyl-N-((1S,4r)-4-((S)-3-methylmorpholine-4-carbonyl)cyclohexyl)-2-phenyl-1H-indole-6-sulfonamide] | 75 nM
8 | CCOC(=O)CCc1cn(C)c2ccc(S(=O)(=O)N[C@H]3CC[C@H](C(=O)N[C@H](C)c4ccc(F)cc4)CC3)cc12 [Example 487] | 91 nM
9 | CC(C)OC(=O)c1ccc(NS(=O)(=O)c2ccc3[nH]c(-c4ccccc4)nc3c2)cc1 [Example 488, isopropyl 4-(2-phenyl-1H-benzo[d]imidazole-5-sulfonamido)benzoate] | 1030 nM
10 | CC(C)(C)OC(=O)c1ccc(NS(=O)(=O)c2ccc3[nH]c(-c4ccccc4)nc3c2)cc1 [Example 489, tert-butyl 4-(2-phenyl-1H-benzo[d]imidazole-5-sulfonamido)benzoate] | 1110 nM
11 | O=C(Nc1ccccc1)c1ccc(NS(=O)(=O)c2ccc3[nH]c(-c4ccccc4)nc3c2)cc1 [Example 490, N-phenyl-4-(2-phenyl-1H-benzo[d]imidazole-5-sulfonamido)benzamide] | > 139000 nM
12 | CCCCOC(=O)c1ccc(NS(=O)(=O)c2ccc3nc(-c4ccccc4)[nH]c3c2)cc1 [Example 491, butyl 4-(2-phenyl-1H-benzo[d]imidazole-6-sulfonamido)benzoate] | 1130 nM
13 | COc1ccccc1-c1nc2ccc(S(=O)(=O)Nc3ccc(C(=O)OC(C)C)cc3)cc2[nH]1 [Example 492, isopropyl 4-(2-(2-methoxyphenyl)-1H-benzo[d]imidazole-6-sulfonamido)benzoate] | 1350 nM
14 | CCCOC(=O)c1ccc(OS(=O)(=O)c2ccc3nc(-c4ccccc4)[nH]c3c2)cc1 [Example 493, propyl 4-(2-phenyl-1H-benzo[d]imidazol-6-ylsulfonyloxy)benzoate] | > 139000 nM
15 | CC(=O)c1cccc(-c2nc3ccc(S(=O)(=O)Nc4ccc(C(=O)OC(C)C)cc4)cc3[nH]2)c1 [Example 494, isopropyl 4-(2-(3-acetylphenyl)-1H-benzo[d]imidazole-6-sulfonamido)benzoate] | 1890 nM
16 | CC(=O)c1ccc(-c2nc3ccc(S(=O)(=O)Nc4ccc(C(=O)OC(C)C)cc4)cc3[nH]2)cc1 [Example 495, isopropyl 4-(2-(4-acetylphenyl)-1H-benzo[d]imidazole-6-sulfonamido)benzoate] | 990 nM
17 | CC(C)OC(=O)c1ccc(NS(=O)(=O)c2ccc3nc(-c4cccc(F)c4)[nH]c3c2)cc1 [Example 496, isopropyl 4-(2-(3-fluorophenyl)-1H-benzo[d]imidazole-6-sulfonamido)benzoate] | 2340 nM
18 | COc1ccc(-c2nc3ccc(S(=O)(=O)Nc4ccc(C(=O)OC(C)C)cc4)cc3[nH]2)cc1 [Example 497, isopropyl 4-(2-(4-methoxyphenyl)-1H-benzo[d]imidazole-6-sulfonamido)benzoate] | 762 nM
19 | CC(=O)Nc1ccc(-c2nc3ccc(S(=O)(=O)Nc4ccc(C(=O)OC(C)C)cc4)cc3[nH]2)cc1 [Example 498, isopropyl 4-(2-(4-acetamidophenyl)-1H-benzo[d]imidazole-6-sulfonamido)benzoate] | 495 nM
20 | CC(C)OC(=O)c1ccc(NS(=O)(=O)c2ccc3nc(-c4ccc(F)cc4)[nH]c3c2)cc1 [Example 499, isopropyl 4-(2-(4-fluorophenyl)-1H-benzo[d]imidazole-6-sulfonamido)benzoate] | 2110 nM
21 | COc1cccc(-c2nc3ccc(S(=O)(=O)Nc4ccc(C(=O)OC(C)C)cc4)cc3[nH]2)c1 [Example 500, isopropyl 4-(2-(3-methoxyphenyl)-1H-benzo[d]imidazole-6-sulfonamido)benzoate] | 1490 nM
22 | Cc1cccc(-c2nc3ccc(S(=O)(=O)Nc4ccc(C(=O)OC(C)C)cc4)cc3[nH]2)c1 [Example 501, isopropyl 4-(2-m-tolyl-1H-benzo[d]imidazole-6-sulfonamido)benzoate] | 1660 nM
23 | CC(C)OC(=O)c1ccc(NS(=O)(=O)c2ccc3nc(-c4ccccc4F)[nH]c3c2)cc1 [Example 502, isopropyl 4-(2-(2-fluorophenyl)-1H-benzo[d]imidazole-6-sulfonamido)benzoate] | 1280 nM
24 | CC(C)OC(=O)c1ccc(NS(=O)(=O)c2ccc3nc(-c4ccc(O)cc4)[nH]c3c2)cc1 [Example 503, isopropyl 4-(2-(4-hydroxyphenyl)-1H-benzo[d]imidazole-6-sulfonamido)benzoate] | 819 nM
25 | Cc1ccc(-c2nc3ccc(S(=O)(=O)Nc4ccc(C(=O)OC(C)C)cc4)cc3[nH]2)cc1 [Example 504, isopropyl 4-(2-p-tolyl-1H-benzo[d]imidazole-6-sulfonamido)benzoate] | 1740 nM
26 | CC(C)OC(=O)c1ccc(NS(=O)(=O)c2ccc3nc(-c4ccc(OC(C)C)cc4)[nH]c3c2)cc1 [Example 505, isopropyl 4-(2-(4-isopropoxyphenyl)-1H-benzo[d]imidazole-6-sulfonamido)benzoate] | 1780 nM
27 | CC(C)OC(=O)c1ccc(NS(=O)(=O)c2ccc3nc(-c4ccc(C(C)C)cc4)[nH]c3c2)cc1 [Example 506, isopropyl 4-(2-(4-isopropylphenyl)-1H-benzo[d]imidazole-6-sulfonamido)benzoate] | 1950 nM
